Data as given in the supplement of paper PMC8882468.

tested on: HCI-001 (organoid from a triple-negative breast cancer xenograft); test: CTG-3D luminescence at 96 h relative to day-0 seeding control (ratio to day 0); higher = more growth / less cytotoxicity; PDxO 3D drug screen, 96 h, CTG-3D normalised to day-0 seeding control.; settings: 0.005 µM; days in culture: 346

SMILES	CTG-3D luminescence at 96 h
COc1cc2c(Oc3ccc4[nH]c(C)cc4c3F)ncnc2cc1OCCCN1CCCC1 [cediranib]	1.25
CC(C)n1nc(-c2ccc3oc(N)nc3c2)c2c(N)ncnc21 [sapanisertib]	1.09
Cc1cc(Nc2ncnc3ccc(NC4=NC(C)(C)CO4)cc23)ccc1Oc1ccn2ncnc2c1 [tucatinib]	1.17
C[C@H](NC(=O)CCC(F)(F)F)C(=O)N[C@@H]1C(=O)N(CCO)c2ncccc2-c2ccccc21 [crenigacestat]	1.1
C[C@]12CC[C@@H]3c4ccc(O)cc4C[C@@H](CCCCCCCCC[S+]([O-])CCCC(F)(F)C(F)(F)F)[C@H]3[C@@H]1CC[C@@H]2O (some centres not stated) [fulvestrant]	1.11
O=C(c1ccc(F)c(F)c1Nc1ccc(I)cc1F)N1CC(O)([C@@H]2CCCCN2)C1 [cobimetinib]	1.07
O=C(/C=C/c1cccnc1)NCCCCC1CCN(C(=O)c2ccccc2)CC1 [FK866]	0.416
CS(=O)(=O)c1ccc(C(=O)Nc2ccc(Cl)c(-c3ccccn3)c2)c(Cl)c1 [vismodegib]	1.23
C=CCn1c(=O)c2cnc(Nc3ccc(N4CCN(C)CC4)cc3)nc2n1-c1cccc(C(C)(C)O)n1 [adavosertib]	1.22

same assay, conditions: 0.005 µM; days in culture: 364

SMILES	CTG-3D luminescence at 96 h
COc1cc2c(Oc3ccc4[nH]c(C)cc4c3F)ncnc2cc1OCCCN1CCCC1 [cediranib]	1.55
CC(C)n1nc(-c2ccc3oc(N)nc3c2)c2c(N)ncnc21 [sapanisertib]	1.21
Cc1cc(Nc2ncnc3ccc(NC4=NC(C)(C)CO4)cc23)ccc1Oc1ccn2ncnc2c1 [tucatinib]	1.34
C[C@H](NC(=O)CCC(F)(F)F)C(=O)N[C@@H]1C(=O)N(CCO)c2ncccc2-c2ccccc21 [crenigacestat]	1.35
C[C@]12CC[C@@H]3c4ccc(O)cc4C[C@@H](CCCCCCCCC[S+]([O-])CCCC(F)(F)C(F)(F)F)[C@H]3[C@@H]1CC[C@@H]2O (some centres not stated) [fulvestrant]	1.37
O=C(c1ccc(F)c(F)c1Nc1ccc(I)cc1F)N1CC(O)([C@@H]2CCCCN2)C1 [cobimetinib]	1.3
O=C(/C=C/c1cccnc1)NCCCCC1CCN(C(=O)c2ccccc2)CC1 [FK866]	0.913
CS(=O)(=O)c1ccc(C(=O)Nc2ccc(Cl)c(-c3ccccn3)c2)c(Cl)c1 [vismodegib]	1.67
C=CCn1c(=O)c2cnc(Nc3ccc(N4CCN(C)CC4)cc3)nc2n1-c1cccc(C(C)(C)O)n1 [adavosertib]	1.37

same assay, conditions: 0.1 µM; days in culture: 240

SMILES	CTG-3D luminescence at 96 h
COc1cc2c(Oc3ccc4[nH]c(C)cc4c3F)ncnc2cc1OCCCN1CCCC1 [cediranib]	0.837
CC(C)n1nc(-c2ccc3oc(N)nc3c2)c2c(N)ncnc21 [sapanisertib]	0.395
Cc1cc(Nc2ncnc3ccc(NC4=NC(C)(C)CO4)cc23)ccc1Oc1ccn2ncnc2c1 [tucatinib]	1.24
C[C@H](NC(=O)CCC(F)(F)F)C(=O)N[C@@H]1C(=O)N(CCO)c2ncccc2-c2ccccc21 [crenigacestat]	0.845
C[C@]12CC[C@@H]3c4ccc(O)cc4C[C@@H](CCCCCCCCC[S+]([O-])CCCC(F)(F)C(F)(F)F)[C@H]3[C@@H]1CC[C@@H]2O (some centres not stated) [fulvestrant]	0.906
O=C(c1ccc(F)c(F)c1Nc1ccc(I)cc1F)N1CC(O)([C@@H]2CCCCN2)C1 [cobimetinib]	1.08
O=C(/C=C/c1cccnc1)NCCCCC1CCN(C(=O)c2ccccc2)CC1 [FK866]	0.167
CS(=O)(=O)c1ccc(C(=O)Nc2ccc(Cl)c(-c3ccccn3)c2)c(Cl)c1 [vismodegib]	1.03
C=CCn1c(=O)c2cnc(Nc3ccc(N4CCN(C)CC4)cc3)nc2n1-c1cccc(C(C)(C)O)n1 [adavosertib]	0.745

same assay, conditions: 0.1 µM; days in culture: 260

SMILES	CTG-3D luminescence at 96 h
COc1cc2c(Oc3ccc4[nH]c(C)cc4c3F)ncnc2cc1OCCCN1CCCC1 [cediranib]	1.4
CC(C)n1nc(-c2ccc3oc(N)nc3c2)c2c(N)ncnc21 [sapanisertib]	0.622
Cc1cc(Nc2ncnc3ccc(NC4=NC(C)(C)CO4)cc23)ccc1Oc1ccn2ncnc2c1 [tucatinib]	1.38
C[C@H](NC(=O)CCC(F)(F)F)C(=O)N[C@@H]1C(=O)N(CCO)c2ncccc2-c2ccccc21 [crenigacestat]	1.34
C[C@]12CC[C@@H]3c4ccc(O)cc4C[C@@H](CCCCCCCCC[S+]([O-])CCCC(F)(F)C(F)(F)F)[C@H]3[C@@H]1CC[C@@H]2O (some centres not stated) [fulvestrant]	1.86
O=C(c1ccc(F)c(F)c1Nc1ccc(I)cc1F)N1CC(O)([C@@H]2CCCCN2)C1 [cobimetinib]	1.28
O=C(/C=C/c1cccnc1)NCCCCC1CCN(C(=O)c2ccccc2)CC1 [FK866]	0.126
CS(=O)(=O)c1ccc(C(=O)Nc2ccc(Cl)c(-c3ccccn3)c2)c(Cl)c1 [vismodegib]	1.74
C=CCn1c(=O)c2cnc(Nc3ccc(N4CCN(C)CC4)cc3)nc2n1-c1cccc(C(C)(C)O)n1 [adavosertib]	1.44

same assay, conditions: 0.1 µM; days in culture: 269

SMILES	CTG-3D luminescence at 96 h
COc1cc2c(Oc3ccc4[nH]c(C)cc4c3F)ncnc2cc1OCCCN1CCCC1 [cediranib]	2.09
CC(C)n1nc(-c2ccc3oc(N)nc3c2)c2c(N)ncnc21 [sapanisertib]	0.45
Cc1cc(Nc2ncnc3ccc(NC4=NC(C)(C)CO4)cc23)ccc1Oc1ccn2ncnc2c1 [tucatinib]	1.64
C[C@H](NC(=O)CCC(F)(F)F)C(=O)N[C@@H]1C(=O)N(CCO)c2ncccc2-c2ccccc21 [crenigacestat]	1.29
C[C@]12CC[C@@H]3c4ccc(O)cc4C[C@@H](CCCCCCCCC[S+]([O-])CCCC(F)(F)C(F)(F)F)[C@H]3[C@@H]1CC[C@@H]2O (some centres not stated) [fulvestrant]	1.34
O=C(c1ccc(F)c(F)c1Nc1ccc(I)cc1F)N1CC(O)([C@@H]2CCCCN2)C1 [cobimetinib]	1.49
O=C(/C=C/c1cccnc1)NCCCCC1CCN(C(=O)c2ccccc2)CC1 [FK866]	0.0874
CS(=O)(=O)c1ccc(C(=O)Nc2ccc(Cl)c(-c3ccccn3)c2)c(Cl)c1 [vismodegib]	1.36
C=CCn1c(=O)c2cnc(Nc3ccc(N4CCN(C)CC4)cc3)nc2n1-c1cccc(C(C)(C)O)n1 [adavosertib]	1.8

same assay, conditions: 0.1 µM; days in culture: 327

SMILES	CTG-3D luminescence at 96 h
COc1cc2c(Oc3ccc4[nH]c(C)cc4c3F)ncnc2cc1OCCCN1CCCC1 [cediranib]	1.71
CC(C)n1nc(-c2ccc3oc(N)nc3c2)c2c(N)ncnc21 [sapanisertib]	0.802
Cc1cc(Nc2ncnc3ccc(NC4=NC(C)(C)CO4)cc23)ccc1Oc1ccn2ncnc2c1 [tucatinib]	1.75
C[C@H](NC(=O)CCC(F)(F)F)C(=O)N[C@@H]1C(=O)N(CCO)c2ncccc2-c2ccccc21 [crenigacestat]	1.87
C[C@]12CC[C@@H]3c4ccc(O)cc4C[C@@H](CCCCCCCCC[S+]([O-])CCCC(F)(F)C(F)(F)F)[C@H]3[C@@H]1CC[C@@H]2O (some centres not stated) [fulvestrant]	1.97
O=C(c1ccc(F)c(F)c1Nc1ccc(I)cc1F)N1CC(O)([C@@H]2CCCCN2)C1 [cobimetinib]	1.75
O=C(/C=C/c1cccnc1)NCCCCC1CCN(C(=O)c2ccccc2)CC1 [FK866]	0.125
CS(=O)(=O)c1ccc(C(=O)Nc2ccc(Cl)c(-c3ccccn3)c2)c(Cl)c1 [vismodegib]	1.87
C=CCn1c(=O)c2cnc(Nc3ccc(N4CCN(C)CC4)cc3)nc2n1-c1cccc(C(C)(C)O)n1 [adavosertib]	1.68

same assay, conditions: 0.1 µM; days in culture: 346

SMILES	CTG-3D luminescence at 96 h
COc1cc2c(Oc3ccc4[nH]c(C)cc4c3F)ncnc2cc1OCCCN1CCCC1 [cediranib]	1.32
CC(C)n1nc(-c2ccc3oc(N)nc3c2)c2c(N)ncnc21 [sapanisertib]	0.528
Cc1cc(Nc2ncnc3ccc(NC4=NC(C)(C)CO4)cc23)ccc1Oc1ccn2ncnc2c1 [tucatinib]	1
C[C@H](NC(=O)CCC(F)(F)F)C(=O)N[C@@H]1C(=O)N(CCO)c2ncccc2-c2ccccc21 [crenigacestat]	1.08
C[C@]12CC[C@@H]3c4ccc(O)cc4C[C@@H](CCCCCCCCC[S+]([O-])CCCC(F)(F)C(F)(F)F)[C@H]3[C@@H]1CC[C@@H]2O (some centres not stated) [fulvestrant]	1.33
O=C(c1ccc(F)c(F)c1Nc1ccc(I)cc1F)N1CC(O)([C@@H]2CCCCN2)C1 [cobimetinib]	1.14
O=C(/C=C/c1cccnc1)NCCCCC1CCN(C(=O)c2ccccc2)CC1 [FK866]	0.063
CS(=O)(=O)c1ccc(C(=O)Nc2ccc(Cl)c(-c3ccccn3)c2)c(Cl)c1 [vismodegib]	1.34
C=CCn1c(=O)c2cnc(Nc3ccc(N4CCN(C)CC4)cc3)nc2n1-c1cccc(C(C)(C)O)n1 [adavosertib]	1.52

same assay, conditions: 0.1 µM; days in culture: 364

SMILES	CTG-3D luminescence at 96 h
COc1cc2c(Oc3ccc4[nH]c(C)cc4c3F)ncnc2cc1OCCCN1CCCC1 [cediranib]	1.18
CC(C)n1nc(-c2ccc3oc(N)nc3c2)c2c(N)ncnc21 [sapanisertib]	0.397
Cc1cc(Nc2ncnc3ccc(NC4=NC(C)(C)CO4)cc23)ccc1Oc1ccn2ncnc2c1 [tucatinib]	0.88
C[C@H](NC(=O)CCC(F)(F)F)C(=O)N[C@@H]1C(=O)N(CCO)c2ncccc2-c2ccccc21 [crenigacestat]	1
C[C@]12CC[C@@H]3c4ccc(O)cc4C[C@@H](CCCCCCCCC[S+]([O-])CCCC(F)(F)C(F)(F)F)[C@H]3[C@@H]1CC[C@@H]2O (some centres not stated) [fulvestrant]	0.918
O=C(c1ccc(F)c(F)c1Nc1ccc(I)cc1F)N1CC(O)([C@@H]2CCCCN2)C1 [cobimetinib]	0.986
O=C(/C=C/c1cccnc1)NCCCCC1CCN(C(=O)c2ccccc2)CC1 [FK866]	0.0658
CS(=O)(=O)c1ccc(C(=O)Nc2ccc(Cl)c(-c3ccccn3)c2)c(Cl)c1 [vismodegib]	1.34
C=CCn1c(=O)c2cnc(Nc3ccc(N4CCN(C)CC4)cc3)nc2n1-c1cccc(C(C)(C)O)n1 [adavosertib]	1.17
